This is an account of results in patent US10941139B2, “Cryptophycin compounds and conjugates, their preparation and their therapeutic use” (priority 2015, dated 2021).

Usually IC50 stands for the concentration needed to halve the response being measured.

Several values for one entry are separate records, joined by “and”; a condition that tells them apart may be missing. Equal values may be shown once. Read-outs that look alike come from different tables or passages of the source.

For data set [1] the following is noted: 16-membered ring.
The next data set concerns MDA-MB-231 cells. Put plainly: Inhibition of proliferation of the MDA-MB-231 cell line by the cryptophycin compounds of formula (I) (14C-thymidine incorporation). It is filed as cell-based. The conditions noted are these: 14C-thymidine incorporation at 96 h, tested as pure β epoxide or α/β epoxide mixture (structural comment), read-out: IC50 (pM) MDA-MD-231. As to the method:
(§1) Evaluation of the Inhibition of Proliferation of the HCT116 and MDA-MB-231 Cell Lines by the Cryptophycin Compounds of Formula (I)
(§2) HCT116 and MDA-MB-231 cells in their exponential growth phase were trypsinized and resuspended in their respective culture medium (DMEM/F12 Gibco #21331, 10% FCS Gibco #10500-056, […] Gibco #25030 for the MDA-MB-231 cells; DMEM Gibco #11960, 10% FCS Gibco #10500-056, 2 mM glutamine Gibco #25030 for the HCT116 cells). The cell suspension was seeded in Cytostar 96-well culture plates (GE Healthcare Europe, # RPNQ0163) in the whole culture medium containing serum at a density of 5000 cells/well. After incubation for 4 h, successive dilutions of the cryptophycin compounds were added to the wells at concentrations decreasing from 10^−7 to 10^−12 M (in triplicate for each concentration). The cells were cultured at 37° C. in an atmosphere containing 5% CO2 in the presence of the cryptophycin compounds for 3 d. On the 4th day, 10 μl of a ^14C-thymidine solution (0.1 μCi/well, Perkin Elmer # NEC56825000) were added to each well. The incorporation of ^14C-thymidine was measured 96 h after the start of the experiment with a microbeta radioactivity counter (Perkin Elmer). The data were expressed in the form of a percentage of survival by determining the ratio between the reduced count obtained with the cells treated with the cryptophycin compound and the count obtained with the cells of the control wells (treated with the culture medium alone).
(§3) The inhibitory activity is given by the concentration which inhibits 50% of the activity.

The next data set deals with HCT116 cells. Put plainly: Inhibition of proliferation of the HCT116 cell line by the cryptophycin compounds of formula (I) (14C-thymidine incorporation). It is filed as cell-based. The following applies: tested as pure β epoxide or α/β epoxide mixture (structural comment). The method, then: as §1, §2, §3
A general note: Dividing cells build labelled thymidine or BrdU into new DNA.

The test system of the next data set is lung cancer. The following applies: two phase II lung cancer trials; cited from earlier work.
The mark [2] stands for this setting: Homo sapiens, HCT-116, 14C-thymidine incorporation at 96 h.

In the case of “(3S,10R,16S, E)-16-((R,E)-4-(4-(azidomethyl)phenyl)but-3-en-2-yl)-10-(3-chloro-4-methoxybenzyl)-3-isobutyl-6,6,7-trimethyl-1-oxa-4,8,11-triazacyclohexadec-13-ene-2,5,9,12-tetraone”, the ring closure, isolated yield in data set [1] (amide bond) amounted to 53%.
Same read-out and setting: with “(3S,10R,16S, E)-10-(3-chloro-4-methoxybenzyl)-16-((R,E)-4-(4-(hydroxymethyl)-phenyl)but-3-en-2-yl)-6,6,7-trimethyl-3-neopentyl-1-oxa-4,8,11-triazacyclohexadec-13-ene-2,5,9,12-tetraone” the figure was 54%.
With `COc1ccc(C[C@H]2NC(=O)/C=C/C[C@@H]([C@H](C)C3OC3c3ccc(CO)cc3)OC(=O)[C@H](C)NC(=O)C(C)(C)CNC2=O)cc1Cl` (stereo partly drawn) [Ex. 15, (3S,10R,16S,E)-10-(3-chloro-4-methoxybenzyl)-16-((S)-1-(3-(4-(hydroxy-methyl)phenyl)oxiran-2-yl)ethyl)-3,6,6-trimethyl-1-oxa-4,8,11-triazacyclohexadec-13-ene-2,5,9,12-tetraone], the IC50 in the data set on MDA-MB-231 cells (Homo sapiens, MDA-MB-231) worked out at 511 pM.
On to “(3S,10R,16S,E)-10-(3-chloro-4-methoxybenzyl)-6-(hydroxymethyl)-16-((R)-1-((4-methoxybenzyl)oxy)propan-2-yl)-6-methyl-3-neopentyl-1-oxa-4,8,11-triazacyclohexadec-13-ene-2,5,9,12-tetraone”, for which the ring closure, isolated yield in data set [1] (rcm bond) is 56% and 37%.
Turning to `COc1ccc(C[C@H]2NC(=O)/C=C/C[C@@H]([C@H](C)[C@H]3O[C@@H]3c3ccc(CO)cc3)OC(=O)[C@H](CC(C)(C)C)NC(=O)C(C)(C)C(C)NC2=O)cc1Cl` (stereo partly drawn) [Ex. 11, (3S,10R,16S,E)-10-(3-chloro-4-methoxybenzyl)-16-((S)-1-((2R,3R)-3-(4-(hydroxymethyl)phenyl)oxiran-2-yl)ethyl)-6,6,7-trimethyl-3-neopentyl-1-oxa-4,8,11-triazacyclohexadec-13-ene-2,5,9,12-tetraone], in the data set with MDA-MB-231 cells (Homo sapiens, MDA-MB-231), the IC50 worked out at 102 pM.
With `COc1ccc(C[C@H]2NC(=O)/C=C/C[C@@H]([C@H](C)[C@H]3O[C@@H]3c3ccc(CO)cc3)OC(=O)[C@H](CC(C)(C)C)NC(=O)C(C)(C)CNC2=O)cc1Cl` [Ex. 4, (3S,10R,16S,E)-10-(3-chloro-4-methoxybenzyl)-16-((S)-1-((2R,3R)-3-(4-(hydroxy-methyl)phenyl)oxiran-2-yl)ethyl)-6,6-dimethyl-3-neopentyl-1-oxa-4,8,11-triazacyclohexadec-13-ene-2,5,9,12-tetraone], the IC50 was determined as 82 pM with MDA-MB-231 cells (Homo sapiens, MDA-MB-231) and 51 pM in the data set with HCT116 cells (setting [2]).
On to `COc1ccc(C[C@H]2NC(=O)/C=C/C[C@@H]([C@H](C)C3OC3c3ccc(CN)cc3)OC(=O)[C@H](CC(C)C)NC(=O)C(C)(C)C(C)NC2=O)cc1Cl` (stereo partly drawn) [Ex. 8, (3S,10R,16S,E)-16-((S)-1-(3-(4-(aminomethyl)phenyl)oxiran-2-yl)ethyl)-10-(3-chloro-4-methoxybenzyl)-3-isobutyl-6,6,7-trimethyl-1-oxa-4,8,11-triazacyclohexadec-13-ene-2,5,9,12-tetraone], for which the IC50 turned out to be 564 pM in the data set with MDA-MB-231 cells (Homo sapiens, MDA-MB-231) and 518 pM with HCT116 cells (setting [2]).
“(3S,7S,10R,16S, E)-10-(3-chloro-4-methoxybenzyl)-16-((R)-1-((4-methoxy-benzyl)oxy)propan-2-yl)-6,6,7-trimethyl-3-neopentyl-1-oxa-4,8,11-triazacyclohexadec-13-ene-2,5,9,12-tetraone” registered a ring closure, isolated yield in data set [1] (rcm bond) of 61%.
As for `COc1ccc(C[C@H]2NC(=O)/C=C/C[C@@H]([C@H](C)[C@H]3O[C@@H]3c3ccccc3)OC(=O)[C@H](CC(C)C)OC(=O)C(C)(C)CNC2=O)cc1Cl` [C-52, cryptophycin C-52, reference compound], in the data set on lung cancer, the stable disease is listed as 30-40%. Also, the results for the IC50 in the data set with MDA-MB-231 cells and in the data set on HCT116 cells (14C-thymidine incorporation at 96 h) were 90 pM and 76 pM, respectively.
In the case of `COc1ccc(C[C@H]2NC(=O)/C=C/C[C@@H]([C@H](C)C3OC3c3ccc(CO)cc3)OC(=O)[C@H](C(C)C)NC(=O)C(C)(C)CNC2=O)cc1Cl` (stereo partly drawn) [Ex. 16, (3S,10R,16S,E)-10-(3-chloro-4-methoxybenzyl)-16-((S)-1-(3-(4-(hydroxy-methyl)phenyl)oxiran-2-yl)ethyl)-6,6-dimethyl-3-isopropyl-1-oxa-4,8,11-triazacyclohexadec-13-ene-2,5,9,12-tetraone], the IC50 in the data set with MDA-MB-231 cells (Homo sapiens, MDA-MB-231) amounted to 2820 pM.
Regarding `COc1ccc(C[C@H]2NC(=O)/C=C/C[C@@H]([C@H](C)C3OC3c3ccc(CO)cc3)OC(=O)[C@H](C(C)(C)C)NC(=O)C(C)(C)CNC2=O)cc1Cl` (stereo partly drawn) [Ex. 17, (3S,10R,16S,E)-10-(3-chloro-4-methoxybenzyl)-16-((S)-1-(3-(4-(hydroxy-methyl)phenyl)oxiran-2-yl)ethyl)-3-tert-butyl-6,6-dimethyl-1-oxa-4,8,11-triazacyclohexadec-13-ene-2,5,9,12-tetraone], in the data set with MDA-MB-231 cells (Homo sapiens, MDA-MB-231), the IC50 turned out to be 856 pM.
As to `COc1ccc(C[C@H]2NC(=O)/C=C/C[C@@H]([C@H](C)[C@H]3O[C@@H]3c3ccc(CN)cc3)OC(=O)[C@H](CC(C)C)NC(=O)C(C)(C)CNC2=O)cc1Cl` [Ex. 1, (3S,10R,16S,E)-16-((S)-1-((2R,3R)-3-(4-(aminomethyl)phenyl)oxiran-2-yl)ethyl)-10-(3-chloro-4-methoxybenzyl)-3-isobutyl-6,6-dimethyl-1-oxa-4,8,11-triazacyclohexadec-13-ene-2,5,9,12-tetraone], the IC50 in the data set on MDA-MB-231 cells (Homo sapiens, MDA-MB-231) was found to be 250 pM; in the data set with HCT116 cells (setting [2]) it was 163 pM.
As for “(3S,10R,16S,E)-16-((S)-1-((2R,3R)-3-(4-(aminomethyl)phenyl)oxiran-2-yl)ethyl)-10-(3-chloro-4-methoxybenzyl)-6-methyl-3-neopentyl-6-(((triethylsilyl)oxy)methyl)-1-oxa-4, 8,11-triazacyclohexadec-13-ene-2,5,9,12-tetraone [Ex. 32]”, the IC50 in the data set with MDA-MB-231 cells came to 1780 pM.
“(3S,10R,16S, E)-10-(3-chloro-4-methoxybenzyl)-16-((R,E)-4-(4-(hydroxymethyl)-phenyl)but-3-en-2-yl)-6,6-dimethyl-3-neopentyl-1-oxa-4,8,11-triazacyclohexadec-13-ene-2,5,9,12-tetraone” came in with a ring closure, isolated yield in data set [1] (amide bond) of 70%.
On to `COc1ccc(C[C@H]2NC(=O)/C=C/C[C@@H]([C@H](C)[C@H]3O[C@@H]3c3ccc(CN)cc3)OC(=O)[C@H](CC(C)C)NC(=O)C(C)(C)C(C)NC2=O)cc1Cl` (stereo partly drawn) [Ex. 18, (3S,10R,16S,E)-16-((S)-1-((2R,3R)-3-(4-(aminomethyl)phenyl)oxiran-2-yl)ethyl)-10-(3-chloro-4-methoxybenzyl)-3-isobutyl-6,6,7-trimethyl-1-oxa-4,8,11-triazacyclohexadec-13-ene-2,5,9,12-tetraone], for which the IC50 in the data set on MDA-MB-231 cells (Homo sapiens, MDA-MB-231) was 228 pM; in the data set with HCT116 cells (setting [2]), 179 pM.
“(3S,10R,16S,E)-16-((R,E)-4-(4-(azidomethyl)phenyl)but-3-en-2-yl)-10-(3-chloro-4-methoxybenzyl)-3-isobutyl-6,6-dimethyl-1-oxa-4,8,11-triazacyclohexadec-13-ene-2,5,9,12-tetraone” displayed a ring closure, isolated yield in data set [1] (amide bond) of 68%.
